Measurements taken from patent US10517862B2, “Fused heterocyclic compound derivative and application thereof” (NHWA PHARMA. CORPORATION, priority 2015, dated 2019).
Like-named read-outs stand apart in the source and are kept apart here.

Experiments:
mice of Kunming breed [1] = assay: Apomorphine induced clambering assay of mice; format: in vivo; conditions: for ED50: Mus musculus, read-out: Apomorphine induced clambering (ED50, po, mg/kg)
Description: Healthy mice of Kunming breed (KM) (male, with body weight of 18-22 g) were provided by Qinglongshan Animal Cultivation Center, Nanjing.
Apomorphine provided by Sigma Company was dissolved in 0.9% NaCl (containing 0.1% vitamin C) before use, and was freshly formulated before use.
Vitamin C, F20061113, was provided by Sinopharm Chemical Reagent Co. Ltd.
Sodium chloride injection, H32026305, was provided by Xuzhou No. 5 Pharmaceutical Factory Co. Ltd.
Instruments: self-made clambering cage, chronograph.
Procedures: apomorphine induced clambering assay of mice
After 5 min of adaptation, the behavior of the mice at 10-11, 20-21, and 30-31 min after the injection of apomorphine were observed and scored. Scoring criteria: the behavior of 4 paws on the floor was scored as 0; the behavior of 2 forepaws on the cage was scored as 1; and the behavior of 4 paws on the cage was scored as 2.

mice of Kunming breed [2] = assay: MK-801 induced high activity in mice; format: in vivo; conditions: Mus musculus, 1.5 h, po, MK-801 0.1 mg/kg ip, spontaneous activities in 90 min
Description: Example 54: MK-801 Induced High Activity—the In Vivo Anti-Schizophrenia Activity of the Compounds
Healthy mice of Kunming breed (with half male and half female, (20±2) g) were provided by Qinglongshan Animal Cultivation Center, Nanjing.
Ascorbic acid was provided by Sinopharm Chemical Reagent Co. Ltd.
MK-801 was produced by Sigma Company, USA; the formulation method: 0.1% vitamin C was used to formulate a 1 mg/ml solution.
Test positive drugs: haloperidol, clozapine, risperidone, olanzapine, aripiprazole, ziprasidone, quetiapine.
Tween 80, with the concentration of 10%.
Mice with qualified body weight were selected, and randomly divided into blank group, model group, positive control group (risperidone group) and drug group. […] 1 h after the administration, 0.1% concentration of ascorbic acid was intraperitoneally injected to the blank group at 0.1 ml/10 g; and the model group, the positive control group (30 min) and the drug group were intraperitoneally injected the MK-801 solution at 0.1 mg/kg. Subsequently, the spontaneous activities of the mice of each group in 90 min were measured.

KM mice = assay: in vivo
5HT2C receptor = target: T1, 5HT2C receptor (Rattus norvegicus, UniProt P08909); assay: 5HT2C receptor binding assay ([3H]-mesulergine, rat striatum membrane); conditions: for inhibition at 10 µM: test compound final concentration 10^−5 M, [3H]-mesulergine, rat striatum membrane, read-out: 5HT2C Inhibition rate (%)
T1 construct: from tissue; host or cells: rat brain striatum
T1 sequence (P08909 33-460): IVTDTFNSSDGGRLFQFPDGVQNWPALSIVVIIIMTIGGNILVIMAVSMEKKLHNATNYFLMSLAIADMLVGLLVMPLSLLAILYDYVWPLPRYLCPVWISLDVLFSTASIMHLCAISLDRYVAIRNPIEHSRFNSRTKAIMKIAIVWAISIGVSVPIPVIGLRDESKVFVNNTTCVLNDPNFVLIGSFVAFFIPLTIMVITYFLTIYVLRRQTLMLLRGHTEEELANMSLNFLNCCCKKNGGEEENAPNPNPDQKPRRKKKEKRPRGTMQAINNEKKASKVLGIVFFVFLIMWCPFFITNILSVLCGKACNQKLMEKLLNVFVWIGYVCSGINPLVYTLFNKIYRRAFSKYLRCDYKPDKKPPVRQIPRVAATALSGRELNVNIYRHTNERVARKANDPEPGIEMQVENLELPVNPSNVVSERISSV
Description: Preparation of 5HT2C Membrane
Rats were decapitated on ice. […] Centrifugation was conducted.
(§1) Materials for the Receptor Binding Assay

[3] = system: α1 norepinephrine receptor; assay: α1 norepinephrine receptor binding assay (3H-prazosin, rat cortex membrane); conditions: for α1 Inhibition rate (%): test compound final concentration 10^−5 M, 3H-prazosin, rat cortex membrane
Description: Preparation of Receptor Membrane of Norepinephrine
α1 Norepinephrine Receptor Binding Assay

D3 receptor = target: T2, D3 receptor (Homo sapiens, UniProt P35462); assay: D3 receptor assay ([3H]-Spiperone, HEK-293 cells); format: binding; conditions: for inhibition at 10 µM: test compound final concentration 10 μmol/L, [3H]-Spiperone, HEK-293 cells, read-out: D3 Inhibition rate (%)
T2 construct: expressed in transfected cells; host or cells: HEK-293
Description: Then the cells were centrifuged at 1000 rpm for 5 min, the supernatant was discarded, and the cell pellets was collected and stored in a −20° C. fridge for reservation. It was re-suspended with Tris-Cl (pH 7.4) when the assay was performed.
Tris was divided into aliquots by Genetimes Technology Inc.
Competitive binding test for receptors: 20 μl of each of the test compounds and 20 μl of the radioactive ligand together with 160 μl of the receptor proteins were added into the reaction tubes, and the final concentrations of the test compound and the positive drug were all 10 μmol/L. After 50 min of incubation in 30° C. water bath, the tubes were immediately moved to ice bath to terminate the reactions. GF/C glass fiber filter papers were used for rapid sucking filtration on a Millipore cell sample collector, 3 ml of elution buffer (50 mM Tris-HCl, PH 7.4) was applied for 3 times, and microwave was applied for 4-5 min for drying. The filter paper was moved into 0.5 ml centrifuge tube, and 500 μl of liposoluble scintillation cocktail was added. The tubes were allowed to stand still for over 30 min in dark, and the intensities of radioactivity were measured by a counter.

Histamine H1 receptor = Histamine H1 receptor (Rattus norvegicus, UniProt P31390); assay: Histamine H1 receptor binding assay (3H-pyrilamine, rat cerebellum membrane); conditions: for inhibition at 10 µM: read-out: H1 Inhibition rate (%)
Description: The supernatant was discarded to give pellets, and homogenate F was added again to the pellets for washing. Centrifugation was conducted and repeated 3 times.
(2) 100 μL of membrane preparation was added into each reaction tube.

5HT1A receptor = target: T3, 5HT1A receptor (Rattus norvegicus, UniProt P19327); assay: 5HT1A receptor binding assay (3H-8-OH-DPAT, rat striatum membrane); conditions: for inhibition at 10 µM: test compound final concentration 10^−5 M, 3H-8-OH-DPAT, rat striatum membrane, read-out: 5HT1A Inhibition rate (%)
T3 construct: Rats were decapitated on ice; from tissue; host or cells: rat brain striatum
T3 sequence (P19327 1-422): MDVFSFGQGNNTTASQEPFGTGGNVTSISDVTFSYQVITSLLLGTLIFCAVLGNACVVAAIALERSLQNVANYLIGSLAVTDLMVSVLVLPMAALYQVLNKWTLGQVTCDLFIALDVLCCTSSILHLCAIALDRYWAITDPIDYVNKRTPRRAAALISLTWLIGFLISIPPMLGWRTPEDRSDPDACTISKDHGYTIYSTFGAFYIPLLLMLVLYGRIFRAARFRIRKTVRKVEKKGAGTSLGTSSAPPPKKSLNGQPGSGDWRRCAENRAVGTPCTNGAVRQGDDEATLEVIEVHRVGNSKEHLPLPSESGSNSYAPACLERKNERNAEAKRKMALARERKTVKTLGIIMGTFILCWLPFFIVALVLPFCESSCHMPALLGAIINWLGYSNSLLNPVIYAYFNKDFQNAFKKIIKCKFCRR
Description: Preparation of 5HT1A Membrane
Rats were decapitated on ice. […] Incubation at 37° C. was conducted for 10 min. […] Centrifugation was conducted at 12000 rpm, 4° C. for 20 min. […] Centrifugation was conducted and repeated 3 times.
as §1

Catalepsy assay in mice = conditions: both sexes, Kunming, mouse, in vivo, po, bar test at 30, 60, 90 min
Description: Healthy mice of Kunming breed (with half male and half female, (22±2) g) were provided by Qinglongshan Animal Cultivation Center, Nanjing.
Instruments: self-made bar-grabbing apparatus: stainless steel bar in mice box, which was 0.3 cm in diameter and […].
Corresponding solvent double-distilled water was administered intragastrically to the negative control group and the model group, corresponding positive drugs were administered intragastrically to the positive drug groups (a small amount of acetic acid was first added and then double-distilled water was added when dissolving), and corresponding dosages of compounds were administered intragastrically to the compound groups for each dosage, with the volume for intragastric administration as 0.1 ml/10 g. At 30 min, 60 min, 90 min after the intragastric administration, the two forepaws of the mice were gently placed on the bars (which were 20 cm in length, 0.3 cm in diameter, and 5.5 cm above the bench), and the hindpaws of the animals were placed on the bottom of the box. The durations of the mice to maintain the posture with the two forepaws on the bars were recorded, and 30 s of spasticity without moving was considered as the positive response. In the case the forepaws of the mice were not put down persistently, the observation was terminated at 60 s. The numbers of animals with positive response in each of the compound dosage groups were counted.

5HT2A receptor = 5HT2A receptor (Rattus norvegicus, UniProt P14842); assay: 5HT2A receptor binding assay ([3H]-Ketanserin, rat striatum membrane); conditions: for inhibition at 10 µM: read-out: 5HT2A Inhibition rate (%)
D2 receptor = D2 receptor binding assay (3H-Spiperone, rat striatum membrane); conditions: for D2 Inhibition rate (%): test compound final concentration 10^−5 M, 3H-Spiperone, rat striatum membrane
Description: Preparation of D2 Membrane
Rats were decapitated on ice. […] The weight of the homogenized tubes were adjusted using a balance, and centrifugation was conducted. […] Centrifugation was conducted.
as §1

in vivo = conditions: both sexes, mouse, in vivo, po
[4] = mice, po, apomorphine 1 mg/kg sc 1 hour after administration
[5] = both, KM, mouse, in vivo, po, 7 days
[6] = single intragastric administration in mice, read-out: LD50 (po, mg/kg)
[7] = single intragastric administration in mice

Chain of 5HT2A receptor (P14842 whole entry): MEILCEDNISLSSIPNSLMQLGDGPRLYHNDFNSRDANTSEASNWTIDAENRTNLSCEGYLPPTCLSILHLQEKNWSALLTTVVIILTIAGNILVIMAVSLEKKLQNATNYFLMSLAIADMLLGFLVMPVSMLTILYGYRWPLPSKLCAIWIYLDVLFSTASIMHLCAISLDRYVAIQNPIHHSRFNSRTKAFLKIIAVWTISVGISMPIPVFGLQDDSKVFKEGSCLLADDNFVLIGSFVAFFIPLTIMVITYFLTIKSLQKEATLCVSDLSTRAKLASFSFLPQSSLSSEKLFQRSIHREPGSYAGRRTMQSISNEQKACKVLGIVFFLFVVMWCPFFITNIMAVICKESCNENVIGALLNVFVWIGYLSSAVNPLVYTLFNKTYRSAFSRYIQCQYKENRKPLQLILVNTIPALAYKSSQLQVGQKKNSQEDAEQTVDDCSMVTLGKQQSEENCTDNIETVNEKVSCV
Chain of Histamine H1 receptor (P31390 whole entry): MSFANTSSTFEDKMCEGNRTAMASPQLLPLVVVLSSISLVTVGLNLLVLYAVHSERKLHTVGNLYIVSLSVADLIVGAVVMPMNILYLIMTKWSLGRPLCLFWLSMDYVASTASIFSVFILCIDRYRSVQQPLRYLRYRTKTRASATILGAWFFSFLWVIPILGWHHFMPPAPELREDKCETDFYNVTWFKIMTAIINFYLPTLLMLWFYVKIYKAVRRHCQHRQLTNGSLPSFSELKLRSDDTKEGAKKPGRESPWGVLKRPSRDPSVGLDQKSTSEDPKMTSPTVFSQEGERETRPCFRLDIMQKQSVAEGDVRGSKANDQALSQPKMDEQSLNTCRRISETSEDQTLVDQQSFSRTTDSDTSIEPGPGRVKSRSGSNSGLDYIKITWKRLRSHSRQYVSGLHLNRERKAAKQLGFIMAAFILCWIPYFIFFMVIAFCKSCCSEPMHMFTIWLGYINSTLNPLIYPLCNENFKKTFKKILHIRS
T2 sequence (P35462 whole entry): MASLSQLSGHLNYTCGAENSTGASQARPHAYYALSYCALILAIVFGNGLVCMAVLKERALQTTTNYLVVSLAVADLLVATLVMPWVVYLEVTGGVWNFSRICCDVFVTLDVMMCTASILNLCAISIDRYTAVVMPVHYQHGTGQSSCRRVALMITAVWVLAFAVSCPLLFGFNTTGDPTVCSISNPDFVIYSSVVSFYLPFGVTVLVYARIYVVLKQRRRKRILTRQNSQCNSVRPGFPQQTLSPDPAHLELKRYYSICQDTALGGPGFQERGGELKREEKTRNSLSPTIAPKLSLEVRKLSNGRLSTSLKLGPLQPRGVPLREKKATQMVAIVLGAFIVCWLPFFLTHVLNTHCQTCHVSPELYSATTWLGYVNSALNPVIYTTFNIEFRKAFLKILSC

SMILES | ED50 (mice of Kunming breed [1]; [4]) [mg/kg] | ED50 (mice of Kunming breed [2]) [mg/kg] | inhibition at 10 µM (5HT2C receptor) [%] | α1 Inhibition rate (%) [3] [%] | inhibition at 10 µM (D3 receptor) [%] | inhibition at 10 µM (Histamine H1 receptor) [%] | inhibition at 10 µM (5HT1A receptor) [%] | inhibition at 10 µM (5HT2A receptor) [%] | D2 Inhibition rate (%) (D2 receptor) | also measured
Cc1nc2n(c(=O)c1CCN1CCC(c3noc4cc(F)ccc34)CC1)CCCC2 [risperidone] | – | – | – | – | – | – | – | – | – | ED50 (mice of Kunming breed [1]; 1 h): 0.015 mg/kg; effect on apomorphine induced clambering symptoms (in words) (mice of Kunming breed [1]; compared with the model group, mice): effectively improve
O=C1CCc2ccc(OCCCCN3CCN(c4cccc(Cl)c4Cl)CC3)cc2N1 [aripiprazole] | 0.66 | 0.12 | – | – | – | – | – | – | – | LD50 (po, mg/kg) (KM mice; [5]): 93 mg/kg
O=C(CCN1CCC(c2noc3cc(F)ccc23)CC1)c1cc2c3c(c1)CCC(=O)N3CCC2 [Compound 2] | 0.11 | 0.2 | 63.9 | 68.75 | 74.9 | 47.9 | 93.9 | 97.9 | 94.33 | ED50 (Catalepsy assay in mice): 3.8 mg/kg; LD50 at 7 days (in vivo; [6]): > 2000 mg/kg
OCCOCCN1CCN(C2=Nc3ccccc3Sc3ccccc32)CC1 [quetiapine] | 2.02 | 10.1 | – | – | – | – | – | – | – | LD50 (po, mg/kg) (KM mice; [5]): 800 mg/kg
CN1CCN(C2=Nc3cc(Cl)ccc3Nc3ccccc32)CC1 [clozapine] | 17.9 | 2.28 | – | – | – | – | – | – | – | LD50 (po, mg/kg) (KM mice; [7]): 150 mg/kg
O=C1Cc2cc(CCN3CCN(c4nsc5ccccc45)CC3)c(Cl)cc2N1 [ziprasidone] | 0.37 | 0.56 | – | – | – | – | – | – | – | LD50 at 7 days (in vivo; [6]): > 2000 mg/kg
O=C(CCCN1CCC(O)(c2ccc(Cl)cc2)CC1)c1ccc(F)cc1 [haloperidol] | 0.1 | 7.42 | – | – | – | – | – | – | – | LD50 (po, mg/kg) (KM mice; [7]): 20 mg/kg
O=C(CCCN1CCC(c2noc3cc(F)ccc23)CC1)c1cc2c3c(c1)CCN3C(=O)CC2 [Compound 15] | 0.12 | 0.21 | 52.7 | 43.69 | 99.9 | 34 | 103 | 104 | 103.83 | ED50 (Catalepsy assay in mice): 50 mg/kg; LD50 at 7 days (in vivo; KM): > 2000 mg/kg
O=C1CCc2cc(CCCCN3CCC(c4noc5cc(F)ccc45)CC3)cc3c2N1CCC3 [Compound 7] | 0.44 | 0.92 | 62.2 | 63.69 | 98.1 | 46.4 | 99.2 | 99.4 | 94.32 | ED50 (Catalepsy assay in mice): 24.1 mg/kg; LD50 at 7 days (in vivo; [6]): > 2000 mg/kg
Cc1cc2c(s1)Nc1ccccc1N=C2N1CCN(C)CC1 [olanzapine] | – | – | – | – | – | – | – | – | – | ED50 (mice of Kunming breed [1]; 1 h): 0.11 mg/kg
O=C1CCc2cc(C(O)CCCN3CCC(c4noc5cc(F)ccc45)CC3)cc3c2N1CCC3 (centres unmarked) [Compound 6] | – | – | 61.6 | 60.91 | 98.5 | 49.1 | 99.6 | 99.1 | 98.48 | affinity with 5HT2C (in words) (5HT2C receptor; summary of in vitro assay): low affinities; affinity with α1 (in words) ([3]; summary of in vitro assay): low affinities; affinity with D3 (in words) (D3 receptor; summary of in vitro assay): high affinities; affinity with H1 (in words) (Histamine H1 receptor; summary of in vitro assay): low affinities; affinity with 5HT1A (in words) (5HT1A receptor; summary of in vitro assay): high affinities; affinity with 5HT2A (in words) (5HT2A receptor; summary of in vitro assay): high affinities; affinity with D2 (in words) (D2 receptor; summary of in vitro assay): high affinities
